These are literature values, as cited in EP4223883A1, “PROCESS FOR PRODUCING TRYPTAMINES” (Infinit Biosystems, priority 2022, dated 2023).

Data set [1] addresses T1, PSI K, 4-hydroxytryptamine kinase, Psilocybe cubensis, Uniprot: P0DPA8 (Psilocybe cubensis, UniProt P0DPA8).
T1 sequence (P0DPA8 1-362): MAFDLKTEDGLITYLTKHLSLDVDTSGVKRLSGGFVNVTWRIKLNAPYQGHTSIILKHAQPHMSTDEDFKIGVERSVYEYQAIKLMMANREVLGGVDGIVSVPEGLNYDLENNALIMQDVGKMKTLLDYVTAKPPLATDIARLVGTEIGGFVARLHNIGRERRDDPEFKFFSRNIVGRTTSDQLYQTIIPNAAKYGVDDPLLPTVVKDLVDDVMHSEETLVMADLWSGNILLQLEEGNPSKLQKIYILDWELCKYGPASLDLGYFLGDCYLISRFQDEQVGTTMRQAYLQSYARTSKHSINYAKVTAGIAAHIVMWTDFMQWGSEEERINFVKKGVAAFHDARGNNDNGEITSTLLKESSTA
As to conditions: substrate taken from the text, not given; Km of the cofactor (ATP) considered equal.

Data set [2] has as its system T2, PSI H, Tryptamine 4-monooxygenase, Psilocybe cubensis, Uniprot: A0A286LF02.
T2 sequence (A0A286LF02 20-507): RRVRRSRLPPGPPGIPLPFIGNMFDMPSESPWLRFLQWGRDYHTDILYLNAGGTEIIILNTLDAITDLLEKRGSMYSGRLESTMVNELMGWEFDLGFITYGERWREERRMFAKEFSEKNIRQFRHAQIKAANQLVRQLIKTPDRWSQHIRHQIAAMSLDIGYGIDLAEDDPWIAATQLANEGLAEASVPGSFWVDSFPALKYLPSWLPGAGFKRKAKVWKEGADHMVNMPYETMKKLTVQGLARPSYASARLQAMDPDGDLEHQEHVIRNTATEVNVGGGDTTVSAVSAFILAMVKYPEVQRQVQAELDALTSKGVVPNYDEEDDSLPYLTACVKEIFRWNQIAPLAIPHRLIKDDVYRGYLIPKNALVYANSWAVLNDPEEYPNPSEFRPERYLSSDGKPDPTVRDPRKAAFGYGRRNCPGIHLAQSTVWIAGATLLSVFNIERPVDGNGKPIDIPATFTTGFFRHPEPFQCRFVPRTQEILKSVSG
As to conditions: substrate taken from the text, not given; Km of the cofactor (NADPH) considered equal.

In data set [3] the test system is PSI M, N-methyltransferase, Psilocybe cubensis, Uniprot: P0DPA9.

Each structure is given as a SMILES string.

As usually defined, the Km is the concentration of substrate that gives half-maximal velocity. As to `NCCc1c[nH]c2cccc(O)c12` [4-hydroxytryptamine], in data set [1], the Km was 80 µM. For `NCCc1c[nH]c2ccccc12` [tryptamine, Tryptamine], in data set [2], the Km is 220 µM. As to `NCCc1c[nH]c2cccc(OP(=O)(O)O)c12` [norbaeocystin], in data set [3], the Km was 165 µM.
